Structures are written as SMILES. Activity calls are given as the source filed them. No cut-off for these calls is given here.

Experiment [1] has as its target T1, M-phase inducer phosphatase 2 (Homo sapiens) (UniProt P30305).
T1 sequence (whole entry): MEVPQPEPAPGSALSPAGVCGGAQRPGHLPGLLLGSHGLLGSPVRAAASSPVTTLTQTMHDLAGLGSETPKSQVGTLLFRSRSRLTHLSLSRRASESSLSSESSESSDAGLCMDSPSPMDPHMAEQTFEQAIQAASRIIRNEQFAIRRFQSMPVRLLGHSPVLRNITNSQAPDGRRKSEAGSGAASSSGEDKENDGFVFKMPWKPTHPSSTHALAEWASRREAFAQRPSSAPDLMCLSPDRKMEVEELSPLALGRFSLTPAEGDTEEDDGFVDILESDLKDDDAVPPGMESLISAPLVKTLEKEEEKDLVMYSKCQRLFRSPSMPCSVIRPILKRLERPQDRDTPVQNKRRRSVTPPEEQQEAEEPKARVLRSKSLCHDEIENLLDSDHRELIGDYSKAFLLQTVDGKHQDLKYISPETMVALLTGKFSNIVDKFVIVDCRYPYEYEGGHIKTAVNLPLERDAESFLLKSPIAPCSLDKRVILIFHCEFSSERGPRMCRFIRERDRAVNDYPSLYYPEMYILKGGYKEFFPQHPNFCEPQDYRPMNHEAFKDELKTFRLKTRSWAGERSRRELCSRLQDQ
The experiment is described as follows: Inhibition of Cdc25B (unknown origin) at 5 ug/ml.

Experiment [2] addresses T2, Tyrosine-protein phosphatase non-receptor type 1 (Homo sapiens) (UniProt P18031).
T2 sequence (whole entry): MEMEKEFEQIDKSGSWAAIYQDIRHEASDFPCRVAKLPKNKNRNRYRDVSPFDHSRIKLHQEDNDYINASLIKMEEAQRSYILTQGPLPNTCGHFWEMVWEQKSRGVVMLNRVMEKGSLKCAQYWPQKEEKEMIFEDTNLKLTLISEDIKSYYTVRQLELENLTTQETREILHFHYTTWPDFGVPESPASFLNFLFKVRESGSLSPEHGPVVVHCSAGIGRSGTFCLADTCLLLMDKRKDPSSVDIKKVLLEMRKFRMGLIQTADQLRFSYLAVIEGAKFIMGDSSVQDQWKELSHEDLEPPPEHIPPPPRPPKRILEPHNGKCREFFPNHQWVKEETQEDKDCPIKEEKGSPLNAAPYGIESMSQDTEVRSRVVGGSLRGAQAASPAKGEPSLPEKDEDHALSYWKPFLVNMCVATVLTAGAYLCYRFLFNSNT
Put plainly: Inhibition of PTP1B (unknown origin) at 5 ug/ml.

For experiment [3], the target named is T3, M-phase inducer phosphatase 2 (Homo sapiens, UniProt P30305).
T3 sequence (P30305 whole entry): T1 sequence (whole entry)
Put plainly: Inhibition of Cdc25B (unknown origin).

Experiment [4] concerns the target T4, Tyrosine-protein phosphatase non-receptor type 2 (Homo sapiens, UniProt P17706).
T4 sequence (P17706 whole entry): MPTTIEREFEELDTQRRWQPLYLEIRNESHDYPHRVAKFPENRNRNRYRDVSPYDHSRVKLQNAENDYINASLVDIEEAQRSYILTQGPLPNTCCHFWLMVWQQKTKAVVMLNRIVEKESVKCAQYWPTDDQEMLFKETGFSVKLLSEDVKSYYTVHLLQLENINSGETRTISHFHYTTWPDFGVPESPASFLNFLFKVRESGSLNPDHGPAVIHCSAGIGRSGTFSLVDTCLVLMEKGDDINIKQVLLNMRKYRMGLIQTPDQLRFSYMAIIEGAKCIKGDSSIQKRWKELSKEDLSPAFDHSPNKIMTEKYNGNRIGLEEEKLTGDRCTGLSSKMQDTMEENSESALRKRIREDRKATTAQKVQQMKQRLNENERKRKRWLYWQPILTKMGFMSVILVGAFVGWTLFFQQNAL
Put plainly: Inhibition of TCPTP (unknown origin).

Experiment [5] addresses Tyrosine-protein phosphatase non-receptor type 6 (Homo sapiens, UniProt P29350). Put plainly: Inhibition of SHP1 (unknown origin).
The target in experiment [6] is T5, Tyrosine-protein phosphatase non-receptor type 11 (Homo sapiens, UniProt Q06124).
T5 sequence (Q06124 whole entry): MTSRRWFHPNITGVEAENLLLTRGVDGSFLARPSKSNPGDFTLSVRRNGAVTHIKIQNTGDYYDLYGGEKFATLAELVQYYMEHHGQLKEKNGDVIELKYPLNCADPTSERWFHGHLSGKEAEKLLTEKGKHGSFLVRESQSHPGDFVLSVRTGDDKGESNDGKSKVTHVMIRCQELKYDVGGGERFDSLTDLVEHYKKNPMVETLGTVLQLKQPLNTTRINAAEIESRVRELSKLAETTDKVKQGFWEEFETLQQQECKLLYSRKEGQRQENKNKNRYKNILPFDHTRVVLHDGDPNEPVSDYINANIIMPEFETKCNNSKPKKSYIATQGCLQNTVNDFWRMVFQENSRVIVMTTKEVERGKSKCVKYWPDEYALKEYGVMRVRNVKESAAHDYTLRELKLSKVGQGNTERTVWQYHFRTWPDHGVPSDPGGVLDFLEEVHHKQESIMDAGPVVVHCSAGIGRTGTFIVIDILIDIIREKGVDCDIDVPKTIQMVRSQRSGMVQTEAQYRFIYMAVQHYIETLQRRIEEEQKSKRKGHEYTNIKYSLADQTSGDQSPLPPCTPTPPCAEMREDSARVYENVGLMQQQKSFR
Put plainly: Inhibition of SHP2 (unknown origin).

The target of experiment [7] is Receptor-type tyrosine-protein phosphatase F (Homo sapiens, UniProt P10586). Put plainly: Inhibition of LAR (unknown origin).
Sequence of Receptor-type tyrosine-protein phosphatase F (P10586 whole entry): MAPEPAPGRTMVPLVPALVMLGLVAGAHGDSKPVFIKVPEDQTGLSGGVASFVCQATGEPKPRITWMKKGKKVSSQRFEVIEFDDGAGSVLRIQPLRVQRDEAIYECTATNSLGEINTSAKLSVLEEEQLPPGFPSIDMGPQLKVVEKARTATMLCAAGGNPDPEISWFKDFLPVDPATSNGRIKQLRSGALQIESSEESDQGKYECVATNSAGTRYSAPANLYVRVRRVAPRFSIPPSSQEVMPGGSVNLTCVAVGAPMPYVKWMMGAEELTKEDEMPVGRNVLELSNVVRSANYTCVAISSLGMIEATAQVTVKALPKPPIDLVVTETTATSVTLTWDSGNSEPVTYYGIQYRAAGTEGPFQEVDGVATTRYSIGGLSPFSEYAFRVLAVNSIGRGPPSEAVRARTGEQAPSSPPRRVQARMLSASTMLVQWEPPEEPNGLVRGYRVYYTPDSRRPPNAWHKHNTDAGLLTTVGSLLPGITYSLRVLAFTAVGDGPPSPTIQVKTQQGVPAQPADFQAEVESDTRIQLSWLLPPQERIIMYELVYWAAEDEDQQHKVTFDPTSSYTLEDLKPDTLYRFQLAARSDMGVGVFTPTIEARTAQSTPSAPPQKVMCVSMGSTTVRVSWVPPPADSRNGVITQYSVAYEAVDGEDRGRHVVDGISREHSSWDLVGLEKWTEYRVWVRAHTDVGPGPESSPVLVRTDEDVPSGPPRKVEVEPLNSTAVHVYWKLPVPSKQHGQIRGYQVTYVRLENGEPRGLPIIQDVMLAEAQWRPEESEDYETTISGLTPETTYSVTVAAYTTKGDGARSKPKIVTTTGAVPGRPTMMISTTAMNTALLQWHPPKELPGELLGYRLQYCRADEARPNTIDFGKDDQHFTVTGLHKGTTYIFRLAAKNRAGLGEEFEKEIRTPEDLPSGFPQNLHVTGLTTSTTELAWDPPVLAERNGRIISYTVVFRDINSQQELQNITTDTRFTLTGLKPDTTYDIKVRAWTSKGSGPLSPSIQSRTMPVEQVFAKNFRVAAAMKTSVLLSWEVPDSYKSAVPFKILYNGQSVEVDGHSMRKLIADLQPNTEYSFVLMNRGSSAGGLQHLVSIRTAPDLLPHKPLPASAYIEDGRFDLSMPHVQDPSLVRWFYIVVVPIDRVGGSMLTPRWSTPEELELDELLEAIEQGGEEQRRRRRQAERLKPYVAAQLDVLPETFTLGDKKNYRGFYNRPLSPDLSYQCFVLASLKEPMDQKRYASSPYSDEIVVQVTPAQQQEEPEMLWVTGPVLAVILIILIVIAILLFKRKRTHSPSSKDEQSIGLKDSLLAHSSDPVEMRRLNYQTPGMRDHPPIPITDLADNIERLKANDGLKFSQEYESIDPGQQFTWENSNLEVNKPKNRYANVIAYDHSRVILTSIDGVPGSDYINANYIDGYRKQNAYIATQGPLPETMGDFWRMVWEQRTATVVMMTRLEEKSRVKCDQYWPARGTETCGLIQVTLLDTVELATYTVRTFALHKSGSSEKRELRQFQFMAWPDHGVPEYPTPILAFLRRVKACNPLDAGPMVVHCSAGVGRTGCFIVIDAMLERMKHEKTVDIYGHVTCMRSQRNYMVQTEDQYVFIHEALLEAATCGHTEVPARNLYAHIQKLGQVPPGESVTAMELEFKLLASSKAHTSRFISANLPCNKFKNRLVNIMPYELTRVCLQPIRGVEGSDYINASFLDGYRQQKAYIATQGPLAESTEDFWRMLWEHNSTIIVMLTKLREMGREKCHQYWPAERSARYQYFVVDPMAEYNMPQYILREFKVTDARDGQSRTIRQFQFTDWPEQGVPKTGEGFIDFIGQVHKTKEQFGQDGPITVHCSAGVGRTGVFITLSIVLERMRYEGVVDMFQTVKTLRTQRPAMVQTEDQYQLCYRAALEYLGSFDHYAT
Experiment [8] addresses T6, Tyrosine-protein phosphatase non-receptor type 1 (Homo sapiens, UniProt P18031).
T6 sequence (P18031 whole entry): T2 sequence (whole entry)
The experiment is described as follows: Inhibition of PTP1B (unknown origin).

The target in experiment [9] is T2, Tyrosine-protein phosphatase non-receptor type 1 (Homo sapiens). Put plainly: Mixed inhibition of PTP1B (unknown origin) by Lineweaver-Burk plot.

Sequence of Tyrosine-protein phosphatase non-receptor type 6 (P29350 whole entry): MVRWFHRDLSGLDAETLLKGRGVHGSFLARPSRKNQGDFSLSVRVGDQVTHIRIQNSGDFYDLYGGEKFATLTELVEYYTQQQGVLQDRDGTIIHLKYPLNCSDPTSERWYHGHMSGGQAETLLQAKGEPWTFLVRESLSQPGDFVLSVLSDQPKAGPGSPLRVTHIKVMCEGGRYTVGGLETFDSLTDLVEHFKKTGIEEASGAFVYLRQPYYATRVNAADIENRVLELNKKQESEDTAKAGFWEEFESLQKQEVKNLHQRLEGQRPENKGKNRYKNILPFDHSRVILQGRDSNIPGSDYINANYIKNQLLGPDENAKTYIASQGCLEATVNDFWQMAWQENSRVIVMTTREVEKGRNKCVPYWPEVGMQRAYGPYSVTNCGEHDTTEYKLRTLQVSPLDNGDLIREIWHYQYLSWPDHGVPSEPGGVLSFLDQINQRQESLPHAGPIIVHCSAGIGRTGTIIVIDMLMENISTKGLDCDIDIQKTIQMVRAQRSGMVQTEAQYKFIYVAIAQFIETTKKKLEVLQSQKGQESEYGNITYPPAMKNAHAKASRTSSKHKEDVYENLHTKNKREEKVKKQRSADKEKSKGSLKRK

In general, inhibition refers to how much of the control response was suppressed. Usually IC50 stands for the midpoint of a concentration-inhibition curve. A higher IC50 goes with lower potency. For the compound `O=C(Nc1nnc(-c2ccc(Oc3ccc([N+](=O)[O-])cc3[N+](=O)[O-])cc2)s1)c1cccc([N+](=O)[O-])c1`, the inhibition in experiment [1] stood at 99.2%; in experiment [2], 85.6%. The half-inhibitory concentration (IC50) was 2.52 µM in experiment [3]; “Not Active” in experiment [4]; “Not Active” in experiment [5]; “Not Active” in [6]; “Not Active” in experiment [7]; 2.67 µM in experiment [8]. Further, the inhibition entry in experiment [9] was “Active”.

The record behind these values is ChEMBL document CHEMBL3352415, “Synthesis and biological evaluation of novel thiadiazole amides as potent Cdc25B and PTP1B inhibitors” (Bioorg Med Chem Lett, 2014).
